This note sets out measurements from patent US4490529A, “Cysteic acid and homocysteic acid analogues of methotrexate and aminopterin” (Dana-Farber Cancer Institute, Inc., priority 1983, dated 1984).

Structures are written as SMILES.

A short description of the data set: Solubility in water and precipitation behaviour. The data set is classed as physicochemical. How it is done:
4-Amino-4-deoxy-N^10 -methylpteroic acid dihydrate (720 mg, 2.0 mmoles) is added in small portions to a stirred solution of diethylphosphorocyanidate (915 mg, 5 mmoles) and triethylamine (500 mg, 5 mmoles) in N,N-dimethylformamide (DMF) (75 ml) previously dried over Linde 4A molecular sieves. The solution is stirred at room temperature overnight, and an extra 25% of diethyl phosphorocyanidate and Et3 N is added. TLC (silica gel, 4:1 chloroform-methanol) indicates the formation of the activated intermediate to be complete. The silylated D,L-homocysteic acid triethylammonium salt (1.8 g, 4 mmoles) is then added, and the reaction mixture is stirred at room temperature for 44 hours. After addition of a few milliliters of water, the solvent is removed with the aid of a rotary evaporator and the residue is dissolved in 3 percent ammonium bicarbonate, with a few drops of concentrated ammonia being added as needed. […] The solution is taken up in a minimum of H2 O with just enough Nh4 OH added to dissolve all the solid, and the solution is applied to a DEAE-cellulose column that has been pre-equilibrated with 3 percent ammonium bicarbonate and then washed to neutrality with H2 O. The column is eluted with a large volume of H2 O, and then again with 3% NH4 HCO3. […] Individual 5-10 ml volumes of the NH4 HCO3 eluate are monitored by TLC. […]

Turning to `CN(Cc1cnc2nc(N)nc(N)c2n1)c1ccc(C(=O)NC(CCS(=O)(=O)O)C(=O)O)cc1` (racemic) [mAPA-D,L-HCysA, N-(4-Amino-4-deoxy-N^10-methylpteroyl)-D,L-homocysteic acid], the solubility in water result is on record as “very soluble in water”. The “precipitation from basic solution” value (adjustment of the pH to 6, in contrast to methotrexate) is recorded as “cannot be precipitated from basic solution on adjustment of the pH to 6”.
